Laboratory results taken from ChEMBL document CHEMBL1129654, “2-Carbomethoxy-3-(diarylmethoxy)-1 alpha H, 5 alpha H-tropane analogs: synthesis and inhibition of binding at the dopamine transporter and comparison with piperazines of the GBR series” (J Med Chem, 1996).

Target: Sodium-dependent serotonin transporter
Test: Inhibition of [3H]citalopram binding to the serotonin transporter in the cynomolgus (macaca fascicularis) monkey caudate-putamen.
Format: tissue-based, Cercopithecidae

Row | SMILES | IC50 [µM]
1 | COC(=O)C1C2CCC(C[C@@H]1OC(c1ccccc1)c1ccc(I)cc1)N2C (stereo partly drawn) | 9.28
2 | COC(=O)C1C2CCC(C[C@@H]1OC(c1ccc(Br)cc1)c1ccc(Br)cc1)N2C (stereo partly drawn) | 2.43
3 | COC(=O)C1C2CCC(C[C@@H]1OC(c1ccc(F)cc1)c1ccc(F)cc1)N2CCCc1ccc(Br)cc1 (stereo partly drawn) | 0.234
4 | COC(=O)C1C2CCC(C[C@@H]1OC(c1ccc(F)cc1)c1ccc(F)cc1)N2Cc1ccccc1 (stereo partly drawn) | 4.97
5 | COC(=O)C1C2CCC(C[C@@H]1OC(c1ccccc1)c1ccccc1)N2C (stereo partly drawn) | 10.1
6 | COC(=O)C1C2CCC(C[C@@H]1OC(c1ccccc1)c1ccc(C)cc1)N2C (stereo partly drawn) | 13.2
7 | COC(=O)C1C2CCC(C[C@@H]1OC(c1ccc(F)cc1)c1ccc(F)cc1)N2CCCc1ccc(I)cc1 (stereo partly drawn) | 2.2
8 | COC(=O)C1C2CCC(C[C@@H]1OC(c1ccc(F)cc1)c1ccc(F)cc1)N2CCCc1ccccc1 (stereo partly drawn) | 0.0197
9 | COC(=O)C1C2CC[C@@H](C[C@@H]1OC(c1ccc(F)cc1)c1ccc(F)cc1)N2C (stereo partly drawn) | 3.53
10 | COC(=O)C1C2CCC(C[C@@H]1OC1c3ccccc3-c3ccccc31)N2C (stereo partly drawn) | 3.44
11 | COC(=O)C1C2CCC(C[C@@H]1OC(c1ccc(Cl)cc1)c1ccc(Cl)cc1)N2C (stereo partly drawn) | 3.36
12 | COC(=O)C1C2CCC(C[C@@H]1OC(c1ccccc1)c1ccc(Cl)cc1)N2C (stereo partly drawn) | 5.96
13 | COC(=O)C1C2CCC(C[C@@H]1OC(c1ccccc1)c1ccc(F)cc1)N2C (stereo partly drawn) | 4.93
14 | COC(=O)C1C2CCC(C[C@@H]1OC(c1ccc(F)cc1)c1ccc(F)cc1)N2CCCCCc1ccccc1 (stereo partly drawn) | 0.55
15 | COC(=O)C1C2CCC(C[C@@H]1OC(c1ccc(Br)cc1)c1ccc(I)cc1)N2C (stereo partly drawn) | 4.39
16 | CCC(O[C@H]1CC2CCC(C1C(=O)OC)N2C)c1ccccc1 (stereo partly drawn) | 21
17 | COC(=O)C1C2CCC(C[C@@H]1OC(c1ccccc1)c1ccc(Br)cc1)N2C (stereo partly drawn) | 5.77
18 | COC(=O)C1C2CCC(C[C@@H]1OC(c1ccc(I)cc1)c1ccc(I)cc1)N2C (stereo partly drawn) | 8.55
19 | COC(=O)C1C2CCC(C[C@@H]1OC(c1ccc(C)cc1)c1ccc(C)cc1)N2C (stereo partly drawn) | 9.8
20 | CN1C2CCC1CC(OC(c1ccc(F)cc1)c1ccc(F)cc1)C2 (stereo not drawn) [DIFLUOROBENZTROPINE] | 5.34

Target: not listed separately
Test: Inhibition of [3H]WIN-35428 binding to the dopamine transporter in the cynomolgus (macaca fascicularis) monkey caudate-putamen.

Row | SMILES | IC50 [µM]
21 | COC(=O)C1C2CCC(C[C@@H]1OC(c1ccc(F)cc1)c1ccc(F)cc1)N2CCCc1ccc(I)cc1 (stereo partly drawn) | 0.119
22 | COC(=O)C1C2CCC(C[C@@H]1OC1c3ccccc3-c3ccccc31)N2C (stereo partly drawn) | 6.03
23 | COC(=O)C1C2CCC(C[C@@H]1OC(c1ccc(Cl)cc1)c1ccc(Cl)cc1)N2C (stereo partly drawn) | 0.0914
24 | COC(=O)C1C2CCC(C[C@@H]1OC(c1ccccc1)c1ccc(F)cc1)N2C (stereo partly drawn) | 0.0132
25 | COC(=O)C1C2CCC(C[C@@H]1OC(c1ccc(F)cc1)c1ccc(F)cc1)N2CCCCCc1ccccc1 (stereo partly drawn) | 0.099
26 | COC(=O)C1C2CCC(C[C@@H]1OC(c1ccc(Br)cc1)c1ccc(I)cc1)N2C (stereo partly drawn) | 0.389
27 | COC(=O)C1C2CCC(C[C@@H]1OC(c1ccccc1)c1ccc(Br)cc1)N2C (stereo partly drawn) | 0.024
28 | COC(=O)C1C2CCC(C[C@@H]1OC(c1ccc(C)cc1)c1ccc(C)cc1)N2C (stereo partly drawn) | 0.24
